These results are taken from patent publication US20130164792A1, “METHOD FOR PRODUCING CRYSTALS OF MUTIVALENT METAL SALT OF (2R, 4R) MONATIN” (Ajinomoto Co., Inc., priority 2011, published 2013).

The conditions of data set [1]: Patent Literature 1; cited from earlier work.
Data set [2] can be described thus: Measurement of solubility of Monatin metal salt in water. The class given is physicochemical. Conditions: 1 g salt added to 1 g water, stirred at 25° C., filtrate analyzed by HPLC. How it is done:
Solubility of a (2S,4R)Monatin potassium salt and a (2R,4R)Monatin potassium salt in water (H2O) was measured. 1 g of the (2S,4R)Monatin potassium salt or 1 g of the (2R,4R)Monatin potassium salt was added to 1 g of the water, the mixture was stirred at 25° C., a slurry was filtrated out, and the resulting filtrate was analyzed by HPLC. […] The solubility of the (2R,4R)Monatin potassium salt was higher than the solubility of the (2S,4R)Monatin potassium salt.
Then, Solubility of a (2S,4R)Monatin magnesium salt and a (2R,4R)Monatin magnesium salt in the water was measured. The solubility was measured in the same manner as above. For the (2S,4R)Monatin magnesium salt, firstly, the same amount of magnesium chloride was added to the (2S, 4R)Monatin potassium salt, and then ethanol was further added thereto. Then, the resulting slurry was filtrated and the wet crystal was dried under reduced pressure to prepare the (2S,4R)Monatin magnesium salt. For the (2R, 4R)Monatin magnesium salt, firstly, the same amount of magnesium chloride was added to the (2R,4R)Monatin potassium salt, and then methanol was further added thereto. Then, the resulting slurry was filtrated and the wet crystal was dried under reduced pressure to prepare the (2R, 4R)Monatin magnesium salt.

Data set [3] can be described thus: Isomerization reaction using (2S,4R)Monatin or (2R,4R)Monatin as substrate with purified racemase. The class given is biochemical. The settings on record: 50 μM PLP, 100 mM Tris-HCl (pH 8.0), 0.72 mg/mL enzyme, 25° C., 15 minutes, 1 U = 1 μmol Monatin isomerized per minute. How it is done:
A reaction was carried out for 15 minutes using the purified racemase under the following condition. The reaction was carried out in 0.1 mL using an Eppendorf tube. After the reaction was terminated, an equal amount of a reaction stopping solution, 200 mM sodium citrate solution (pH 4.5) was added to the sample. HPLC was used for the analysis.
Reaction condition: 20 mM (2S,4R)Monatin or (2R,4R)Monatin, 50 μM PLP, 100 mM Tris-HCl (pH 8.0), 0.72 mg/mL racemase purified enzyme, 25° C., 120 rpm.
The (2S,4R)Monatin and the (2R,4R)Monatin were quantified by HPLC analysis. An analysis condition is as shown below.
Mobile phase: 20 mM KH2PO4/acetonitrile=100/5 Flow rate: 1.0 mL/minute Column temperature: 40° C.

`N[C@@H](C[C@@](O)(Cc1c[nH]c2ccccc12)C(=O)O)C(=O)O` (single isomer, unassigned) [(2S,4S) isomer of 4-hydroxy-4-(3-indolylmethyl)-2-aminoglutaric acid]: in data set [1], the “sweetness compared with sucrose” value is on record as “several hundreds times sweeter than sucrose”.

For `N[C@H](C[C@](O)(Cc1c[nH]c2ccccc12)C(=O)O)C(=O)[O-].N[C@H](C[C@](O)(Cc1c[nH]c2ccccc12)C(=O)O)C(=O)[O-].[Mg+2]` [(2R,4R)Monatin magnesium salt], the solubility in water in data set [2] came out at 1.6 % by weight.

Regarding `N[C@H](C[C@](O)(Cc1c[nH]c2ccccc12)C(=O)O)C(=O)[O-].[K+]` [(2R,4R)Monatin potassium salt], the solubility in water in data set [2] was 37.8 % by weight.

Consider `N[C@@H](C[C@](O)(Cc1c[nH]c2ccccc12)C(=O)O)C(=O)[O-].N[C@@H](C[C@](O)(Cc1c[nH]c2ccccc12)C(=O)O)C(=O)[O-].[Mg+2]` [(2S,4R)Monatin magnesium salt], for which the solubility in water in data set [2] is given as 14.5 % by weight.

In the case of `N[C@@H](C[C@](O)(Cc1c[nH]c2ccccc12)C(=O)O)C(=O)[O-].[K+]` [(2S,4R)Monatin potassium salt], the solubility in water in data set [2] came out at 20.1 % by weight.

B1: Rac39: racemase (SEQ ID NO:2) with C-terminal His tag, expressed in E. coli, converts (2S,4R)Monatin into (2R,4R)Monatin (protein)
chain: MAETNLHKKINIEMHFDNLVSNFEKIRKLNNENVDVADKVIPVVKANAYNFGVYDITKTFLSMKEPQTKFFVFSLEEGIELRKFFPSIERIFVIMGALENDAELFKKYNLTPVVNSFYQLEVCKKHNIKNIVLQFNTGMNRNGFEVKELRKVKQICDSEKFNVLMVMSHFACSDNMASEVNAYQINEYKKVARVFNDKKIIKSFPATFGILNFNTINGLVNSFRPGRLYYGFLPKEGYDKNLFSVYVYLSKDKEGNIILPFGKEDGIDYGEQAYILVDKNKAYVKQVDSHKVILDTNDKTLVGKKVYLIKNGMGYDEFKEQSKQDLLTFFGKIFKNCDKNKNLCNINATRKRAKKDNKFVPKAIFKKDAKGQYTQYTTTLFEKREVSADGIVGYDATRAVKKGDKLGVIFNGHMDGFYQPMSNKHVFVYVKNKYKQLIPCEFYGLISSDQAVIKIPNDEFDNIEYGAKVVVFDKNHPITLFEQATGVSRDELFYGLDKTYRIAEQK
modifications: C-terminal His tag; Obtained from environmental sample
Regarding B1, the “activity to form the (2S,4R)Monatin from the (2R,4R)Monatin” value in data set [3] (20 mM (2R,4R)Monatin) is on record as 0.09 U/mg. Also, the “activity to form the (2R,4R)Monatin from the (2S,4R)Monatin” value in data set [3] (20 mM (2S,4R)Monatin) came out at 0.14 U/mg.
